Measurements published in ChEMBL document CHEMBL1667796, “Synthesis and evaluation of phosphonated N-heteroarylcarboxamides as DOXP-reductoisomerase (DXR) inhibitors” (Bioorg Med Chem, 2011).
pIC50: −log10 of the molar value. Activity calls are given as the source filed them. The rule behind the calls is not given here.

Experiments:
[1] = system: Escherichia coli; test: Binding affinity at Escherichia coli DXR by saturation transfer difference NMR spectroscopy
[2] = Inhibition of Escherichia coli DXR assessed as conversion of NADPH to NADP by spectrophotometry; conditions: for pIC50: read-out: IC50
[3] = system: Escherichia coli; test: Inhibition of Escherichia coli DXR assessed as conversion of NADPH to NADP at 500 uM by spectrophotometry
[4] = system: Escherichia coli; test: Inhibition of Escherichia coli DXR assessed as conversion of NADPH to NADP at 0.3 uM by spectrophotometry

With `CCOP(=O)(CC(=O)Nc1nc(C)c(C(C)=O)s1)OCC` the Activity [1] was “Active” and the pIC50 [2] was 2.89.
In the case of `O=C(CP(=O)(O)O)Nc1nccs1`, the Activity [1] was “Active”, the pIC50 [2] was under 2.82 and the inhibition [3] was 7.4%.
For `CCOP(=O)(CC(=O)Nc1ccccn1)OCC`, the Activity [1] was “Active”, the pIC50 [2] was 3.33 and the inhibition [3] was 58.5%.
In the case of `O=C(CP(=O)(O)O)NCc1ccco1`, the Activity [1] was “Active”, the pIC50 [2] was 2.99 and the inhibition [3] was 30%.
For `CCOP(=O)(CC(=O)Nc1ccon1)OCC`, the Activity [1] was “Active”, the pIC50 [2] was 2.93 and the inhibition [3] was 11.7%.
With `O=C(CP(=O)([O-])[O-])Nc1ccccn1.[Na+].[Na+]` the Activity [1] was “Active”, the IC50 [2] was “Not Active” and the inhibition [3] was “inactive”.
With `O=CN(O)CCCP(=O)(O)O` the inhibition [4] was 99.3%.
In the case of `O=C(CP(=O)(O)O)Nc1ccon1`, the Activity [1] was “Active”, the pIC50 [2] was under 2.82 and the inhibition [3] was 12.2%.
For `CCOP(=O)(CC(=O)NCc1ccco1)OCC`, the Activity [1] was “Active”, the pIC50 [2] was 3.39 and the inhibition [3] was 67.7%.
With `CC(=O)c1sc(NC(=O)CP(=O)(O)O)nc1C` the Activity [1] was “Active”, the pIC50 [2] was under 2.82 and the inhibition [3] was 16.6%.
In the case of `CCOP(=O)(CC(=O)Nc1nccs1)OCC`, the Activity [1] was “Active”, the pIC50 [2] was 3.14 and the inhibition [3] was 28.9%.
